The source of these data is patent publication US20250223306A1, “TEAD INHIBITORS AND METHODS OF USE” (Sporos BioDiscovery, Inc., priority 2022, published 2025).

SMILES strings stand for the structures.

The subject of one assay is BHY cells. Nature of the assay: BHY proliferation and cell viability assay (CTG). It is filed as cell-based. Particulars: 144 h, BHY cell line. On the procedure:
BHY cells were trypsinised, counted and plated at the specified cell density in 200 μl of growth media in 96 well flat bottom tissue culture treated plates. The plated cells were incubated overnight at 37° C., 5% CO2 before being treated with compounds in triplicate for each assay point. 50 μl of the serially diluted compound was added to each well giving a final DMSO concentration of 0.5% per well and a total volume of 250 μl per well. The treated cells were incubated for 144 hours (6 days) at 37° C., 5% CO2. Following compound treatment, the remaining viable cells were detected using the Promega CellTiter-Glo 2.0 assay as follows: 150 μl of media was removed from each of the wells to be assayed and 100 μl of room temperature CellTiter-Glo 2.0 reagent was added. The plate was placed on an orbital shaker at 500 rpm at room temperature for 2 minutes, and then incubated without shaking for a further 10 minutes at room temperature. 150 μl of cell lysate was removed from each well and dispensed into a single well of a white opaque 96 well plate. Luminescence at 545 nm was read using a BMG CLARIOstar plate reader. The luminescent signal was directly proportional to number of viable cells, the percent of viable cells relative to the DMSO control was then calculated for each assay point. Percent viability relative to DMSO control was plotted against compound concentration and a curve fitted with non-linear regression in GraphPad
Prism software. EC50 and IC50 values are calculated using GraphPad Prism software as follows: For EC50 values, a non-constrained four-parameter logistic curve fit was used (Sigmoidal, 4PL, X is concentration). For Absolute IC50 values the baseline was constrained to Y=0 (Absolute IC50, X is concentration). Area Under the Curve (AUC): Prism computes area-under-the-curve by the trapezoidal method. The analysis sees a fitted curve as simply a series of connected XY points. Prism simply computes the area under the “curve” defined by connecting the points by straight lines. The units of the AUC are the units of the Y axis times units of the X axis.

The subject of another assay is MSTO-211H cells. As to the kind of experiment: MSTO-211H proliferation and cell viability assay (CTG). Particulars: Homo sapiens, MSTO-211H cell line, 144 hours. It is filed as cell-based. On the procedure: MSTO-211H cells were trypsinised, counted and plated at the specified cell density in 200 μl of growth media in 96 well flat bottom tissue culture treated plates. The plated cells were incubated overnight at 37° C., 5% CO2 before being treated with compounds in triplicate for each assay point. 50 μl of the serially diluted compound was added to each well giving a final DMSO concentration of 0.5% per well and a total volume of 250 μl per well. The treated cells were incubated for 144 hours (6 days) at 37° C., 5% CO2. Following compound treatment, the remaining viable cells were detected using the Promega CellTiter-Glo 2.0 assay as follows: 150 μl of media was removed from each of the wells to be assayed and 100 μl of room temperature CellTiter-Glo 2.0 reagent was added. The plate was placed on an orbital shaker at 500 rpm at room temperature for 2 minutes, and then incubated without shaking for a further 10 minutes at room temperature. 150 μl of cell lysate was removed from each well and dispensed into a single well of a white opaque 96 well plate. Luminescence at 545 nm is read using a BMG CLARIOstar plate reader. The luminescent signal was directly proportional to number of viable cells, the percent of viable cells relative to the DMSO control was then calculated for each assay point. Percent viability relative to DMSO control was plotted against compound concentration and a curve fitted with non-linear regression in GraphPad Prism software. IC50 values were calculated using GraphPad Prism software as follows: For Relative IC50 values a non-constrained four-parameter logistic curve fit was used (Sigmoidal, 4PL, X is concentration). For Absolute IC50 values the baseline was constrained to Y=0 (Absolute IC50, X is concentration). Area Under the Curve (AUC): Prism computes area-under-the-curve by the trapezoidal method. The analysis sees a fitted curve as simply a series of connected XY points. Prism simply computes the area under the “curve” defined by connecting the points by straight lines. The units of the AUC are the units of the Y axis times units of the X axis.

Another assay concerns the target TEAD4 (Homo sapiens, UniProt Q15561). Nature of the assay: TEAD thermal shift assay (TSA). It is filed as binding. The text has this:
(§1) Thermal shift assay (TSA) is a biophysical method to evaluate stability of proteins with change in temperature. The assay measures thermal denaturation temperature in varying conditions such as different drug concentration. For this example, fluorogenic dye was used that bind to unfolded proteins. SYPRO Orange binds non-specifically to hydrophobic surfaces, and water strongly quenches its fluorescence. When the protein unfolds, the exposed hydrophobic surfaces bind the dye, resulting in an increase in fluorescence by excluding water. Detergent micelles also bind the dye and increase background noise dramatically. Binding of small molecules to proteins leads to a stabilization against to thermal denaturation with the degree of thermal stabilization proportional to the strength of binding.
(§2) The study described in this example investigated the change in melting temperature (ΔTm) of TEAD isoforms 1˜4 when treated with TEAD inhibitors. Compound 1-1-a known strong TEAD1 and weak TEAD2 inhibitor; as well as Compound 1-4-a pan-TEAD inhibitor were used as controls.
(§3) Tris-HCL was dissolved in 5 mL of Cell culture grade water and allowed to dissolve completely. The pH was adjusted to 8 using NaOH. Additional assay buffer components were added in the order listed above. The buffer was mixed slowly.
(§4) Assay buffer was prepared according to the procedures outlined above and dispensed into test wells. Spyro orange was added to a concentration of 5× in the assay buffer, followed by test compound stock solution which was added to a concentration of 10 μM or 30 μM in the assay buffer.
(§5) The melt cycle was performed in Bio-RAD PCR instrument from 20-95° C. with ramp rate of 1° C./min.

For the next assay, the target named is TEAD3 (Homo sapiens, UniProt Q99594). Nature of the assay: TEAD thermal shift assay (TSA). It is filed as binding.
Description: as §1, §2, §3, §4, §5

The next assay deals with TEAD2 (Homo sapiens, UniProt Q15562). Nature of the assay: TEAD thermal shift assay (TSA). It is filed as binding.
Description: as §1, §2, §3, §4, §5

The next assay deals with TEAD1 (Homo sapiens, UniProt P28347). As to the kind of experiment: TEAD thermal shift assay (TSA). It is filed as binding.
Description: as §1, §2, §3, §4, §5

Setting [1] is: ratio of protein to compound 1:1.
The mark [2] stands for this setting: ratio of protein to compound 1:3.

TEAD4, sequence (Q15561 whole entry): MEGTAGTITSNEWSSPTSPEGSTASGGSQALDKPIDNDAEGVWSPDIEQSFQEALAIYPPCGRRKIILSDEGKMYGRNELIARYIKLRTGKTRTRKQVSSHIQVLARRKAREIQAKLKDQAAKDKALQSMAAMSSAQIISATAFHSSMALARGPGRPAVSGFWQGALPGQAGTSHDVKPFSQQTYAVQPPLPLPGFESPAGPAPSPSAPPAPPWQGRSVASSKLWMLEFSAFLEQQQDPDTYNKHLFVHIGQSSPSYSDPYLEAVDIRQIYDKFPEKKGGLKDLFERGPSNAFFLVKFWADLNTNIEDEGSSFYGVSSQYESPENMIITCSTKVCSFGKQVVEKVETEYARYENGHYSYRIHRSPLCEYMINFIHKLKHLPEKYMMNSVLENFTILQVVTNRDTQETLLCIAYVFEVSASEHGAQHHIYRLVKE
TEAD3, sequence (Q99594 whole entry): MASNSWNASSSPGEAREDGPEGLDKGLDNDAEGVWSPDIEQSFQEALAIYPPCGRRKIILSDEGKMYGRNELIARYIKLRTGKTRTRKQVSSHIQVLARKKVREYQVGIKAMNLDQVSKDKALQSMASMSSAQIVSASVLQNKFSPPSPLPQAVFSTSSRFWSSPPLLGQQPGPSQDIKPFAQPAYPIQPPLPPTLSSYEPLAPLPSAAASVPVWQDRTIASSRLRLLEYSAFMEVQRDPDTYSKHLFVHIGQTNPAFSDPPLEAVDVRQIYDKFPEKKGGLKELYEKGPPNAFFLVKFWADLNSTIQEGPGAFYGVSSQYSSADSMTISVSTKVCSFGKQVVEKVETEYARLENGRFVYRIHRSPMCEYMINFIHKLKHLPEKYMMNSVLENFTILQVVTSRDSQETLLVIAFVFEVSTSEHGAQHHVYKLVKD
TEAD1, sequence (P28347 whole entry): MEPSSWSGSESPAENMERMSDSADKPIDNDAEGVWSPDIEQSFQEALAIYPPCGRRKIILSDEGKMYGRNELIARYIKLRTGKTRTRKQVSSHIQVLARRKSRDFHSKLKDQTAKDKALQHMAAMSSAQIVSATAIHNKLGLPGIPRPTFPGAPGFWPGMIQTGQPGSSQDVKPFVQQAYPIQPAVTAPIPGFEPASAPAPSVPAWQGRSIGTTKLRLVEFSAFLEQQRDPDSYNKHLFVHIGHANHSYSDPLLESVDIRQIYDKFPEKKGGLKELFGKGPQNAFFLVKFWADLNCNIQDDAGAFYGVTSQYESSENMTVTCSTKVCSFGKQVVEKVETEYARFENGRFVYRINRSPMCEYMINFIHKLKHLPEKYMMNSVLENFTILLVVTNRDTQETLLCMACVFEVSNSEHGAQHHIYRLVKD
TEAD2, sequence (Q15562 whole entry): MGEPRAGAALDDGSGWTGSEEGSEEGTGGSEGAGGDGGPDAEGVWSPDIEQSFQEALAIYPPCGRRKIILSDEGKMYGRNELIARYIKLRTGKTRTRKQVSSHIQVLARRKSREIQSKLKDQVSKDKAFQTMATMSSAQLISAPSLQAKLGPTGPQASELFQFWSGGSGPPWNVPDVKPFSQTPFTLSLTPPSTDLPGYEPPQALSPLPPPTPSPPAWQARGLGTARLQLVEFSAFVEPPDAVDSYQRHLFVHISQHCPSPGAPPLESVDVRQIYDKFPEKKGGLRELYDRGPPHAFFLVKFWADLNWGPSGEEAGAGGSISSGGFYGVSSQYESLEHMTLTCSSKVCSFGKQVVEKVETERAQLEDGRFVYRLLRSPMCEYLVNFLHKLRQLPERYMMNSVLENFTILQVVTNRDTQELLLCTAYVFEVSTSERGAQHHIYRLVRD

A word on the EC50: it is the concentration needed to bring the measured effect to its halfway point. Read a low EC50 as higher potency in that assay. `C=CC(=O)Nc1ccc(C)c(Oc2ccc(Cl)cc2)c1` [Compound 1-3, reference compound]: the EC50 in the assay with BHY cells and with MSTO-211H cells was less than 0.2 µM each time.
Consider `FC(F)(F)c1ccc(CN2CCC(C3CC(Br)=NO3)CC2)cc1` (stereo not drawn) [Compound 1-2, reference compound], for which the EC50 with BHY cells is more than 1 µM; with MSTO-211H cells, less than 0.2 µM.
`C[C@H](CO)NC(=O)c1cnc2c(C3=CCC4(CC3)CC(F)(F)C4)cccc2c1` [Compound 165, (R)-8-(2,2-difluorospiro[3.5]non-6-en-7-yl)-N-(1-hydroxypropan-2-yl)quinoline-3-carboxamide] came in with an EC50 with MSTO-211H cells of less than 0.2 µM.
On to `COc1cc(C2=CCC(C(F)(F)F)CC2)c2ncc(C(=O)N[C@H](C)CO)cc2c1` (stereo partly drawn) [Compound 110, N—((R)-1-hydroxypropan-2-yl)-6-methoxy-8-(4-(trifluoromethyl)cyclohex-1-en-1-yl)quinoline-3-carboxamide], for which the “TEAD4 ΔTm” value at TEAD4 (setting [1]) was 2 °C; on TEAD4 (setting [2]) it was 3 °C. Besides, the “TEAD3 ΔTm” value was 2 °C on TEAD3 (setting [1]) and 3 °C at TEAD3 (setting [2]). The “TEAD2 ΔTm” value at TEAD2 (setting [1]) worked out at 2 °C; at TEAD2 (setting [2]), 3 °C. For the same compound, the “TEAD1 ΔTm” value at TEAD1 (setting [1]) was found to be 14 °C; at TEAD1 (setting [2]), 16 °C. In addition, the half-maximal effective concentration (EC50) in the assay on MSTO-211H cells was less than 0.2 µM.
Regarding `O=C(NCc1ncco1)c1cnc2c(C3=CCC(C(F)(F)F)CC3)cccc2c1` (stereo not drawn) [Compound 11, N-(oxazol-2-ylmethyl)-8-(4-(trifluoromethyl)cyclohex-1-en-1-yl)quinoline-3-carboxamide], the “TEAD4 ΔTm” value on TEAD4 (setting [1]) turned out to be 1.5 °C; on TEAD4 (setting [2]) it was 2.5 °C. For the same compound, the “TEAD3 ΔTm” value on TEAD3 (setting [1]) was determined as 3.5 °C; at TEAD3 (setting [2]), 3 °C. In addition, the “TEAD2 ΔTm” value at TEAD2 (setting [1]) and on TEAD2 (setting [2]) was 3 °C each time. For the same compound, the “TEAD1 ΔTm” value is 11 °C at TEAD1 (setting [1]) and 11.5 °C on TEAD1 (setting [2]). The same compound came in with an EC50 with MSTO-211H cells of less than 0.2 µM.
In the assay with MSTO-211H cells, `C[C@@H](NC(=O)c1cnc2c(C3=CCC4(CC3)CC4)cccc2c1)c1ncco1` [Compound 166, (R)—N-(1-(oxazol-2-yl)ethyl)-8-(spiro[2.5]oct-5-en-6-yl)quinoline-3-carboxamide] had an EC50 of less than 0.2 µM.
For the compound `C[C@H](NC(=O)c1cnc2c(C3=CCC(C(F)(F)F)CC3)cccc2c1)c1ccccn1` (stereo partly drawn) [Compound 2, N—((S)-1-(pyridin-2-yl)ethyl)-8-(4-(trifluoromethyl)cyclohex-1-en-1-yl)quinoline-3-carboxamide], the results for the “TEAD4 ΔTm” value at TEAD4 (setting [1]) and at TEAD4 (setting [2]) were 2 °C and 4 °C, respectively. The “TEAD3 ΔTm” value is 2 °C at TEAD3 (setting [1]) and 3 °C at TEAD3 (setting [2]). Moreover, the “TEAD2 ΔTm” value at TEAD2 (setting [1]) came out at 1 °C; on TEAD2 (setting [2]), 1.5 °C. Moreover, the “TEAD1 ΔTm” value at TEAD1 (setting [1]) was determined as 10 °C; at TEAD1 (setting [2]) it was 12 °C.
On to `C[C@H](NC(=O)c1cnc2c(C3=CC[C@@H](C(F)(F)F)CC3)cccc2c1)c1ncco1` (single isomer, unassigned) [Compound 20, N-(1-(oxazol-2-yl)ethyl)-8-(4-(trifluoromethyl)cyclohex-1-en-1-yl)quinoline-3-carboxamide], for which the EC50 in the assay with BHY cells is less than 0.2 µM. The “TEAD4 ΔTm” value at TEAD4 (setting [1]) was determined as 1.5 °C; at TEAD4 (setting [2]), 3 °C. Further, the “TEAD3 ΔTm” value at TEAD3 (setting [1]) was found to be 2 °C; on TEAD3 (setting [2]), 4.5 °C. Moreover, the “TEAD2 ΔTm” value on TEAD2 (setting [1]) amounted to 1 °C; on TEAD2 (setting [2]), 3 °C. The “TEAD1 ΔTm” value at TEAD1 (setting [1]) stood at 10 °C; on TEAD1 (setting [2]), 13 °C.
In the case of `C[C@H](CO)NC(=O)c1cnc2c(C3=CCC(C(F)(F)F)CC3)cccc2c1` (stereo partly drawn) [Compound 7, N—((R)-1-hydroxypropan-2-yl)-8-(4-(trifluoromethyl)cyclohex-1-en-1-yl)quinoline-3-carboxamide], the EC50 with BHY cells and in the assay with MSTO-211H cells was less than 0.2 µM throughout. Also, the “TEAD4 ΔTm” value on TEAD4 (setting [1]) turned out to be 1.5 °C; on TEAD4 (setting [2]), 3 °C. Besides, the “TEAD3 ΔTm” value at TEAD3 (setting [1]) and on TEAD3 (setting [2]) was 2 °C throughout. Also, the “TEAD2 ΔTm” value at TEAD2 (setting [1]) stood at 2 °C; on TEAD2 (setting [2]) it was 3 °C. Moreover, the entries for the “TEAD1 ΔTm” value on TEAD1 (setting [1]) and at TEAD1 (setting [2]) were 9 °C and 11 °C, respectively.
Turning to `O=C(NCc1ccn[nH]1)c1cnc2c(C3=CCC(C(F)(F)F)CC3)cccc2c1` (stereo not drawn) [Compound 47, N-((1H-pyrazol-5-yl)methyl)-8-(4-(trifluoromethyl)cyclohex-1-en-1-yl)quinoline-3-carboxamide], the concentration for a half-maximal effect (EC50) in the assay on BHY cells and in the assay with MSTO-211H cells was less than 0.2 µM each time. The “TEAD4 ΔTm” value on TEAD4 (setting [1]) and at TEAD4 (setting [2]) was 3 °C throughout. The “TEAD3 ΔTm” value on TEAD3 (setting [1]) amounted to 2 °C; at TEAD3 (setting [2]), 3 °C. The “TEAD2 ΔTm” value on TEAD2 (setting [1]) and on TEAD2 (setting [2]) was 2 °C throughout. Moreover, the results for the “TEAD1 ΔTm” value on TEAD1 (setting [1]) and on TEAD1 (setting [2]) were 9 °C and 11 °C, respectively.
On to `COc1cc(C2=CCC(C(F)(F)F)CC2)c2ncc(C(=O)N[C@H](C)c3ncco3)cc2c1` (stereo partly drawn) [Compound 109, 6-methoxy-N—((R)-1-(oxazol-2-yl)ethyl)-8-(4-(trifluoromethyl)cyclohex-1-en-1-yl)quinoline-3-carboxamide], for which the EC50 in the assay with BHY cells and with MSTO-211H cells was less than 0.2 µM throughout. For the same compound, the “TEAD4 ΔTm” value at TEAD4 (setting [1]) turned out to be 1 °C; at TEAD4 (setting [2]), 2 °C. For the same compound, the “TEAD3 ΔTm” value is 2 °C at TEAD3 (setting [1]) and 3 °C on TEAD3 (setting [2]). Further, the “TEAD2 ΔTm” value at TEAD2 (setting [1]) worked out at 3 °C; on TEAD2 (setting [2]), 2 °C. The “TEAD1 ΔTm” value was 13 °C at TEAD1 (setting [1]) and 14 °C on TEAD1 (setting [2]).
Turning to `COC[C@H](CO)NC(=O)c1cnc2c(C3=CCC(C(F)(F)F)CC3)cccc2c1` (stereo partly drawn) [Compound 62, N—((S)-1-hydroxy-3-methoxypropan-2-yl)-8-(4-(trifluoromethyl)cyclohex-1-en-1-yl)quinoline-3-carboxamide], the EC50 in the assay with BHY cells and in the assay on MSTO-211H cells was less than 0.2 µM each time. The “TEAD4 ΔTm” value worked out at 2 °C at TEAD4 (setting [1]) and 3 °C at TEAD4 (setting [2]). Also, the “TEAD3 ΔTm” value on TEAD3 (setting [1]) is 1 °C; at TEAD3 (setting [2]), 2 °C. Also, the “TEAD2 ΔTm” value on TEAD2 (setting [1]) and on TEAD2 (setting [2]) was 3 °C in each case. Also, the “TEAD1 ΔTm” value on TEAD1 (setting [1]) worked out at 9 °C; at TEAD1 (setting [2]), 11 °C.
